These compounds were tested against T1, HCV NS3 protease domain (Hepatitis C virus genotype 1b, UniProt Q9WMX2) (assay: biochemical). Conditions: Enzyme Assay 1 (HCV NS3 Protease Domain Peptide Cleavage Assay) activity, apparent Ki class.
T1 construct: The first 181 amino acids of NS3 (residues 1027-1207 of the viral polyprotein); hexa-histidine (C); made in house; host or cells: E. coli BL21/DE3 pLysS
T1 sequence (Q9WMX2 1027-1207, other chains not shown): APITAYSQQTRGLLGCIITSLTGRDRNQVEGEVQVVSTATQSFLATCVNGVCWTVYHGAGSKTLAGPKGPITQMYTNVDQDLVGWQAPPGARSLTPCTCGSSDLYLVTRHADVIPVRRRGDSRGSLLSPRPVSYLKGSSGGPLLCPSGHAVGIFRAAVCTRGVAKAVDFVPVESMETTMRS
`CCC[C@H](NC(=O)[C@@H]1C[C@]2(CC(c3ccc(C(C)C)cc3)=NO2)CN1C(=O)O[C@H]1CCOC1)C(=O)C(=O)NC1CC1` [Compound 405] showed a Ki of over 500 nM. With `CCC[C@H](NC(=O)[C@@H]1C[C@]2(CC(c3cccc(OC)c3)=NO2)CN1C(=O)[C@@H](NC(=O)CC1CCOCC1)C(C)(C)C)C(=O)C(=O)NC1CC1` [Compound 525] the Ki was over 500 nM. For `CCC[C@H](NC(=O)[C@@H]1C[C@]2(CC(c3ccco3)=NO2)CN1C(=O)[C@@H](NC(=O)OC1CCOC1)C(C)(C)C)C(=O)C(=O)NC1CC1` (stereo partly shown) [Compound 472], the Ki was over 500 nM. `CCC[C@H](NC(=O)[C@@H]1C[C@]2(CC(c3cccc(Cl)c3)=NO2)CN1C(=O)[C@@H](NC(=O)OCc1ccncc1)C(C)(C)C)C(=O)C(=O)NC1CC1` [Compound 357] showed a Ki of 100 to 500 nM. `CCC[C@H](NC(=O)[C@@H]1C[C@]2(CC(c3ccc(Cl)c(Cl)c3)=NO2)CN1C(=O)[C@@H](NC(=O)O[C@H]1CCOC1)C(C)(C)C)C(=O)C(=O)NC1CC1` [Compound 32] was tested, and the Ki was 100 to 500 nM. With `CCC[C@H](NC(=O)[C@@H]1C[C@]2(CC(c3cccc(C)c3)=NO2)CN1C(=O)[C@@H](NC(=O)O[C@H]1CCOC1)C(C)(C)C)C(=O)C(=O)NC1CC1` [Compound 444] the Ki was 100 to 500 nM. `CCC[C@H](NC(=O)[C@@H]1C[C@]2(CC(c3cccc(Cl)c3)=NO2)CN1C(=O)[C@@H](NC(=O)N[C@H](COC)C(C)(C)C)C(C)(C)C)C(=O)C(=O)NC1CC1` [Compound 477] was tested, and the Ki was under 100 nM. `CCC[C@H](NC(=O)[C@@H]1C[C@]2(CC(c3cc(C)c(OC)c(C)c3)=NO2)CN1C(=O)[C@@H](NC(=O)O[C@H]1CCOC1)C(C)(C)C)C(=O)C(=O)NC1CC1` [Compound 224] gave a Ki of 100 to 500 nM. In the case of `CCC[C@H](NC(=O)[C@@H]1C[C@]2(CC(c3cccc(Cl)c3)=NO2)CN1C(=O)[C@@H](NC(=O)NCc1cccnc1)C(C)(C)C)C(=O)C(=O)NC1CC1` [Compound 497], the Ki is reported as 100 to 500 nM. In the case of `CCC[C@H](NC(=O)[C@@H]1C[C@]2(CC(c3ccc4c(c3)OCO4)=NO2)CN1C(=O)[C@@H](NC(C)=O)C(C)(C)C)C(=O)C(=O)NC1CC1` [Compound 570], the Ki is reported as 100 to 500 nM. For `CCC[C@H](NC(=O)[C@@H]1C[C@]2(CC(c3cccc(Cl)c3)=NO2)CN1C(=O)[C@@H](NC(=O)Oc1ccc2c(c1)OCO2)C(C)(C)C)C(=O)C(=O)NC1CC1` [Compound 197], the Ki was 100 to 500 nM. For `CCC[C@H](NC(=O)[C@@H]1C[C@]2(CC(c3cccc(Cl)c3)=NO2)CN1C(=O)[C@@H](NC(=O)C1CC=CCC1C(=O)OC)C(C)(C)C)C(=O)C(=O)NC1CC1` (stereo partly shown) [Compound 557], the Ki was 100 to 500 nM. Compound `C=CCOC(=O)N[C@H](C(=O)N1C[C@@]2(CC(c3ccc(F)cc3)=NO2)C[C@H]1C(=O)N[C@@H](CCC)C(=O)C(=O)NC1CC1)C(C)(C)C` [Compound 154] has a Ki of 100 to 500 nM. Compound `CCC[C@H](NC(=O)[C@@H]1C[C@]2(CC(c3cccc(Cl)c3)=NO2)CN1C(=O)[C@@H](NC(=O)CCC1NC(=O)NC1=O)C(C)(C)C)C(=O)C(=O)NC1CC1` (stereo partly shown) [Compound 505] has a Ki of 100 to 500 nM. `CCC[C@H](NC(=O)[C@@H]1C[C@]2(CC(c3ccccc3)=NO2)CN1C(=O)NCc1cc(OC)c(OC)c(OC)c1)C(=O)C(=O)NC1CC1` [Compound 367] showed a Ki of over 500 nM. `CCC[C@H](NC(=O)[C@@H]1C[C@]2(CC(c3cc(F)c(F)c(F)c3)=NO2)CN1C(=O)[C@@H](NC(=O)O[C@H]1CCOC1)C(C)(C)C)C(=O)C(=O)NC1CC1` [Compound 215] was tested, and the Ki was 100 to 500 nM. `CCC[C@H](NC(=O)[C@@H]1C[C@]2(CC(c3ccc(Cl)c(C)c3)=NO2)CN1C(=O)[C@@H](NC(=O)O[C@H]1CCOC1)C(C)(C)C)C(=O)C(=O)NC1CC1` [Compound 109] showed a Ki of under 100 nM. For `CCC[C@H](NC(=O)[C@@H]1C[C@]2(CC(c3ccc(OC)cc3OC)=NO2)CN1C(=O)OCC1c2ccccc2-c2ccccc21)C(=O)C(=O)NC1CC1` [Compound 371], the Ki was 100 to 500 nM. Compound `CCC[C@H](NC(=O)[C@@H]1C[C@]2(CC(c3ccc(Cl)c(C)c3)=NO2)CN1C(=O)[C@@H](NC(=O)CC1CCOCC1)C(C)(C)C)C(=O)C(=O)NC1CC1` [Compound 490] has a Ki of 100 to 500 nM. With `CCC[C@H](NC(=O)[C@@H]1C[C@]2(CC(c3cccc(Cl)c3)=NO2)CN1C(=O)[C@@H](NC(=O)NCc1ccccc1)C(C)(C)C)C(=O)C(=O)NC1CC1` [Compound 583] the Ki was 100 to 500 nM. Work on `CCC[C@H](NC(=O)[C@@H]1C[C@]2(CC(c3ccccc3)=NO2)CN1C(=O)[C@@H](NC(=O)O[C@H]1CCOC1)C(C)(C)C)C(=O)C(=O)NC1CC1` [Compound 202] yielded a Ki of over 500 nM. With `CCC[C@H](NC(=O)[C@@H]1C[C@]2(CC(c3ccc(Cl)s3)=NO2)CN1C(=O)[C@@H](NC(=O)CC1CCCCC1)C(C)(C)C)C(=O)C(=O)NC1CC1` [Compound 478] the Ki was 100 to 500 nM. With `CCC[C@H](NC(=O)[C@@H]1C[C@]2(CC(c3cccc(Cl)c3)=NO2)CN1C(=O)[C@@H](NC(=O)CCn1ccnc1C)C(C)(C)C)C(=O)C(=O)NC1CC1` [Compound 237] the Ki was 100 to 500 nM. Work on `CCC[C@H](NC(=O)[C@@H]1C[C@]2(CC(c3ccc(CC)o3)=NO2)CN1C(=O)[C@@H](NC(=O)CC1CCCCC1)C(C)(C)C)C(=O)C(=O)NC1CC1` [Compound 256] yielded a Ki of 100 to 500 nM. Compound `CCC[C@H](NC(=O)[C@@H]1C[C@]2(CC(c3cccc(Cl)c3)=NO2)CN1C(=O)[C@@H](NC(=O)[C@H]1COc2ccccc2O1)C(C)(C)C)C(=O)C(=O)NC1CC1` [Compound 71] has a Ki of over 500 nM. `CCC[C@H](NC(=O)[C@@H]1C[C@]2(CC(CC)=NO2)CN1C(=O)[C@@H](NC(=O)OCc1ccccc1)C(C)(C)C)C(=O)C(=O)NC1CC1` [Compound 383] was tested, and the Ki was over 500 nM. `CCC[C@H](NC(=O)[C@@H]1C[C@]2(CC(c3cccc(Cl)c3)=NO2)CN1C(=O)[C@@H](NC(=O)CC1CCCCC1)C(C)(C)C)C(=O)C(N)=O` [Compound 273] gave a Ki of 100 to 500 nM. In the case of `CCC[C@H](NC(=O)[C@@H]1C[C@]2(CC(c3cncc(Br)c3)=NO2)CN1C(=O)[C@@H](NC(=O)CC1CCCCC1)C(C)(C)C)C(=O)C(=O)NC1CC1` [Compound 41], the Ki is reported as under 100 nM. Compound `CCC[C@H](NC(=O)[C@@H]1C[C@]2(CC(c3cccc(Cl)c3)=NO2)CN1C(=O)[C@@H](NC(=O)c1n[nH]c(=O)c2ccccc12)C(C)(C)C)C(=O)C(=O)NC1CC1` [Compound 381] has a Ki of 100 to 500 nM. Compound `CCC[C@H](NC(=O)[C@@H]1C[C@]2(CC(c3cccc(Cl)c3)=NO2)CN1C(=O)[C@@H](NC(=O)C1CCOCC1)C(C)(C)C)C(=O)C(=O)NC1CC1` [Compound 523] has a Ki of 100 to 500 nM. In the case of `CCC[C@H](NC(=O)[C@@H]1C[C@]2(CC(c3ccc(OC(F)(F)F)cc3)=NO2)CN1C(=O)O[C@H]1CCOC1)C(=O)C(=O)NC1CC1` [Compound 524], the Ki is reported as over 500 nM. Work on `C=C[C@@H]1C[C@]1(NC(=O)[C@@H]1C[C@]2(CC(c3cccc(Cl)c3)=NO2)CN1C(=O)[C@@H](NC(=O)CC1CCCCC1)C(C)(C)C)C(=O)O` [Compound 144] yielded a Ki of over 500 nM. `CCC[C@H](NC(=O)[C@@H]1C[C@]2(CC(c3ccc(F)c(C(F)(F)F)c3)=NO2)CN1C(=O)O[C@H]1CCOC1)C(=O)C(=O)NC1CC1` [Compound 451] was tested, and the Ki was over 500 nM. `CNC(=O)C(=O)C(CC1CCC1)NC(=O)[C@@H]1C[C@]2(CC(c3cccc(Cl)c3)=NO2)CN1C(=O)[C@@H](NC(=O)CC1CCCCC1)C(C)(C)C` (stereo partly shown) [Compound 231] showed a Ki of 100 to 500 nM. Work on `CCC[C@H](NC(=O)[C@@H]1C[C@]2(CC(c3cccc(Cl)c3)=NO2)CN1C(=O)[C@@H](NC(=O)Cc1sc(C)nc1C)C(C)(C)C)C(=O)C(=O)NC1CC1` [Compound 75] yielded a Ki of 100 to 500 nM. `CCC[C@H](NC(=O)[C@@H]1C[C@]2(CC(c3cccc(Cl)c3)=NO2)CN1C(=O)[C@@H](NC(=O)C(C)N1Cc2ccccc2C1=O)C(C)(C)C)C(=O)C(=O)NC1CC1` (stereo partly shown) [Compound 317] gave a Ki of over 500 nM. With `CCC[C@H](NC(=O)[C@@H]1C[C@]2(CC(c3ccccc3)=NO2)CN1C(=O)[C@@H](NC(C)=O)C(C)(C)C)C(=O)C(=O)NC1CC1` [Compound 228] the Ki was over 500 nM. With `CCC[C@H](NC(=O)[C@@H]1C[C@]2(CC(c3cccc(Cl)c3)=NO2)CN1C(=O)[C@@H](NC(=O)O[C@H]1CO[C@H]2OCC[C@H]21)C(C)(C)C)C(=O)C(=O)NC1CC1` [Compound 387] the Ki was 100 to 500 nM. For `CCC[C@H](NC(=O)[C@@H]1C[C@]2(CC(c3ccc4c(c3)OCO4)=NO2)CN1C(=O)[C@@H](NS(=O)(=O)c1cccc2ccccc12)C(C)(C)C)C(=O)C(=O)NC1CC1` [Compound 536], the Ki was over 500 nM. For `CCC[C@H](NC(=O)[C@@H]1C[C@]2(CC(c3ccc(C(=O)O)cc3)=NO2)CN1C(=O)[C@@H](NC(=O)O[C@H]1CCOC1)C(C)(C)C)C(=O)C(=O)NC1CC1` [Compound 543], the Ki was over 500 nM. Work on `CCC[C@H](NC(=O)[C@@H]1C[C@]2(CC(c3cccc(Cl)c3)=NO2)CN1C(=O)[C@@H](NC(=O)CC1CCCC1)C(C)(C)C)C(=O)C(=O)NC1CC1` [Compound 72] yielded a Ki of 100 to 500 nM. For `CCC[C@H](NC(=O)[C@@H]1C[C@]2(CC(c3ccc(OC)cc3OC)=NO2)CN1C(=O)[C@@H](NC(=O)OCc1ccccc1)C(C)(C)C)C(=O)C(=O)NC1CC1` [Compound 335], the Ki was over 500 nM. `CCC[C@H](NC(=O)[C@@H]1C[C@]2(CC(c3cccc(Cl)c3)=NO2)CN1C(=O)[C@@H](NC(=O)OCc1cc(F)cc(F)c1)C(C)(C)C)C(=O)C(=O)NC1CC1` [Compound 203] was tested, and the Ki was 100 to 500 nM. `CCC[C@H](NC(=O)[C@@H]1C[C@]2(CC(c3cc(Cl)c(OC)c(OC)c3)=NO2)CN1C(=O)[C@@H](NC(=O)CC1CCCCC1)C(C)(C)C)C(=O)C(=O)NC1CC1` [Compound 494] gave a Ki of under 100 nM. `CCC[C@H](NC(=O)[C@@H]1C[C@]2(CC(c3cccc(Cl)c3)=NO2)CN1C(=O)[C@@H](NC(=O)N1CCC2(CC1)CC(=O)c1ccccc12)C(C)(C)C)C(=O)C(=O)NC1CC1` [Compound 291] was tested, and the Ki was over 500 nM. Work on `CCC[C@H](NC(=O)[C@@H]1C[C@]2(CC(c3ccc(OC)c(Cl)c3)=NO2)CN1C(=O)[C@@H](NC(=O)CC1CCOCC1)C(C)(C)C)C(=O)C(=O)NC1CC1` [Compound 279] yielded a Ki of 100 to 500 nM. For `CCC[C@H](NC(=O)[C@@H]1C[C@]2(CC(c3cccc(Cl)c3)=NO2)CN1C(=O)C1CC1c1ccccc1)C(=O)C(=O)NC1CC1` (stereo partly shown) [Compound 421], the Ki was over 500 nM. `CCC[C@H](NC(=O)[C@@H]1C[C@]2(CC(c3ccc(CC)cc3)=NO2)CN1C(=O)O[C@H]1CCOC1)C(=O)C(=O)NC1CC1` [Compound 47] gave a Ki of over 500 nM. With `CCC[C@H](NC(=O)[C@@H]1C[C@]2(CC(c3ccccc3)=NO2)CN1C(=O)[C@@H](NC(=O)NCC)C(C)(C)C)C(=O)C(=O)NC1CC1` [Compound 580] the Ki was 100 to 500 nM.

Source: US7964624B1, “Inhibitors of serine proteases” (priority 2005, dated 2011)
